US8513232B2, “Substituted spirocyclic piperidine derivatives as histamine-3 (H3) receptor ligands” (Cephalon, Inc., priority 2008, dated 2013)
Read-outs that look alike come from different tables or passages of the source.

How the values were obtained:
human H3 receptor = molecular target: T1, human H3 receptor (Homo sapiens, UniProt Q9Y5N1); experiment: Human H3 radioligand binding ([3H]-N-alpha-methylhistamine, SPA)
T1 construct: expressed in transfected cells
How it was run: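 Compounds (0.01 nM-30 μM) competed with approximately 1 nM [3H]-N-alpha-methylhistamine for human H3 receptor in membranes of stably transfected CHO cells, 10 μg protein per well, in Tris-HCl pH 7.4/MgCl2/BSA buffer for 4 h at room temperature. Bound radioligand measured by scintillation proximity; 10 μM clobenpropit gave non-specific binding.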

[1] = molecular target: T2, rat histamine H3 receptor (Rattus norvegicus, UniProt Q9QYN8); experiment: Rat H3 radioligand binding ([3H]-N-alpha-methylhistamine, SPA)
T2 construct: encoding the entire 445-amino-acid rat histamine H3 receptor; expressed in transfected cells; membrane preparation
T2 sequence (Q9QYN8 whole entry): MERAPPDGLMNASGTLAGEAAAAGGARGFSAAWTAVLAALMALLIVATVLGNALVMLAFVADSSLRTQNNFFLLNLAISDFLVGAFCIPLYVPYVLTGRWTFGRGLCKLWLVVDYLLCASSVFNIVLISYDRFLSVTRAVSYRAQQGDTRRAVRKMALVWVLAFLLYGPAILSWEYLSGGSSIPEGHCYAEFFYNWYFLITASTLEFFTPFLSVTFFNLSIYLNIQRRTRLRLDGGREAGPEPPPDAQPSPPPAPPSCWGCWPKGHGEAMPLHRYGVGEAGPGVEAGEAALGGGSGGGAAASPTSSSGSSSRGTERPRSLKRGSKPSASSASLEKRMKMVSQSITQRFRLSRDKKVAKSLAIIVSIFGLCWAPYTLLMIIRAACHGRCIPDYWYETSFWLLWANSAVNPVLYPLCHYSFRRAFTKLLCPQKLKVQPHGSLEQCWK
How it was run: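 SPA-bead binding assay using [3H]-N-alpha-methylhistamine (approximately 1 nM final) with test compounds from 0.01 nM to 30 μM. Rat H3 receptor membranes came from stably transfected CHO-A3 cells; incubation ran 4 h at room temperature, in the dark, in Tris pH 7.4 buffer with MgCl2 and BSA. Clobenpropit (10 μM) gave non-specific binding.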

[2] = Human H3 binding, Table B, Examples 136-362, read-out: hum H3 binding Ki
[3] = Rat H3 binding, Table B, Examples 136-362, read-out: rat H3 binding Ki

T1 sequence (Q9Y5N1 whole entry): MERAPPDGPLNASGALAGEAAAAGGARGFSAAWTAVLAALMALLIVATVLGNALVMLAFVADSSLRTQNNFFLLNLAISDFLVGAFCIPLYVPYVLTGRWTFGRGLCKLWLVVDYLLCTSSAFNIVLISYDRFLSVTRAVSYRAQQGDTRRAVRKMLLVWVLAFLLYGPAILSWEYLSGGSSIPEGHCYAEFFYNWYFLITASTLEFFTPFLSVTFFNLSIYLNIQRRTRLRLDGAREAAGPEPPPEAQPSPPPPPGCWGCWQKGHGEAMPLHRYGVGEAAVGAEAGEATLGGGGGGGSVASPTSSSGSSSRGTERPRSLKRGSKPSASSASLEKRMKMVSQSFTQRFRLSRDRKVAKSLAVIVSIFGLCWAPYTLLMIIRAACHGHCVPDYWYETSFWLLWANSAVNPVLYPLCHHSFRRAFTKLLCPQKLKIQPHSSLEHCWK

SMILES | Ki (human H3 receptor; [2]) [nM] | Ki [1, 3] [nM] | melting point [°C] | Ki (human H3 receptor) [nM] | Ki [1] [nM]
Cc1nn(C)c(C)c1-c1ccc2c(c1)CCC1(CCN(C3CCC3)CC1)O2 [Example 171] | < 200 | < 200 | 47 to 49 | – | –
O=C(c1ccc(Nc2ccc3c(c2)COC2(CCN(C4CCC4)CC2)O3)cc1)N1CCOCC1 [Example 172] | < 200 | < 200 | 79 to 84 | – | –
O=C(c1ccc(-c2ccc3c(c2)COC2(CCN(C4CCC4)CC2)O3)cn1)N1CC[C@@H](O)C1 [Example 173] | < 200 | < 200 | 100 to 101 | – | –
CNC(=O)N1CCN(c2ccc3c(c2)COC2(CCN(C4CCC4)CC2)O3)CC1 [Example 174] | < 200 | < 200 | 59 to 62 | – | –
CNC(=O)c1ccc(-c2ccc3c(c2)CCOC2(CCN(C4CCC4)CC2)O3)cn1 [Example 175] | 200 to 1000 | > 1000 | 141 to 142.2 | – | –
CNC(=O)c1ccc(-c2ccc3c(c2)COC2(CCN(C4CCC4)CC2)O3)s1 [Example 176] | < 200 | < 200 | 215 to 219 | – | –
CNC(=O)c1cccc(-c2ccc3c(c2)CCOC2(CCN(C4CCC4)CC2)O3)c1 [Example 177] | 200 to 1000 | > 1000 | 100.2 to 102.5 | – | –
O=C1N(c2ccncc2)CCN1c1ccc2c(c1)COC1(CCN(C3CCC3)CC1)O2 [Example 178] | < 200 | < 200 | 185 to 189 | – | –
CNC(=O)c1ccc(-c2ccc3c(c2)CCOC2(CCN(C4CCC4)CC2)O3)cc1 [Example 180] | 200 to 1000 | > 1000 | 155.6 to 157.3 | – | –
CNC(=O)NCc1ccc(-c2ccc3c(c2)COC2(CCN(C4CCC4)CC2)O3)cc1 [Example 181] | < 200 | < 200 | 205 to 206.5 | – | –
O=C(c1ccc(-c2ccc3c(c2)CCC2(CCN(C4CCC4)CC2)O3)cc1)N1CC[C@H](O)C1 [Example 182] | < 200 | < 200 | 193 to 195 | – | –
CCCn1cc(-c2ccc3c(c2)CCC2(CCN(C4CCC4)CC2)O3)cn1 [Example 183] | < 200 | < 200 | 97 to 99 | – | –
O=C(Nc1ccc(Cl)cc1)Nc1ccc2c(c1)COC1(CCN(C3CCC3)CC1)O2 [Example 184] | < 200 | 200 to 1000 | 201 to 203 | – | –
O=C(Nc1cccc(Cl)c1)Nc1ccc2c(c1)COC1(CCN(C3CCC3)CC1)O2 [Example 186] | < 200 | < 200 | 216 to 217 | – | –
CC(C)Cn1cc(-c2ccc3c(c2)CCC2(CCN(C4CCC4)CC2)O3)cn1 [Example 187] | < 200 | < 200 | 106 to 108 | – | –
O=C(Nc1ccc2c(c1)CCC1(CCN(C3CCC3)CC1)O2)c1ccncc1 [Example 188] | < 200 | < 200 | 65 to 67 | – | –
c1ccc(COc2ccc3c(c2)CCC2(CCN(C4CCC4)CC2)O3)cc1 [Example 189] | < 200 | < 200 | 102 to 103 | – | –
OC1CC2(CCN(C3CCC3)CC2)Oc2ccc(OCc3ccccc3)cc21 (stereo not drawn) [Example 190] | < 200 | 200 to 1000 | 69 to 71 | – | –
CO[C@H]1CCN(C(=O)c2ccc(-c3ccc4c(c3)COC3(CCN(C5CCC5)CC3)O4)cc2)C1 [Example 191] | < 200 | < 200 | 120 to 121 | – | –
O=C(c1ccc(-c2ccc3c(c2)COC2(CCN(C4CCC4)CC2)O3)cc1F)N1CC[C@H](O)C1 [Example 192] | < 200 | < 200 | 99.5 to 100.5 | – | –
COCCNC(=O)c1ccc(-c2ccc3c(c2)CCC2(CCN(C4CCC4)CC2)O3)cc1 [Example 193] | < 200 | < 200 | 158 to 160 | – | –
O=C(c1ccc(-c2ccc3c(c2)CCC2(CCN(C4CCC4)CC2)O3)cc1F)N1CC[C@H](O)C1 [Example 194] | < 200 | < 200 | 78 to 80 | – | –
COCCNC(=O)c1ccc(-c2ccc3c(c2)COC2(CCN(C4CCC4)CC2)O3)cn1 [Example 195] | < 200 | < 200 | 113 to 114 | – | –
Cc1cc(C(=O)Nc2ccc3c(c2)COC2(CCN(C4CCC4)CC2)O3)cc(Cl)n1 [Example 196] | < 200 | < 200 | 179 to 180 | – | –
O=C1CCN(C(=O)c2ccc(-c3ccc4c(c3)CCC3(CCN(C5CCC5)CC3)O4)cc2)CC1 [Example 197] | – | – | 82.9 to 84.3 | < 200 | < 200

SMILES | Ki (human H3 receptor; [2]) [nM] | Ki [1, 3] [nM] | melting point [°C] | Ki (human H3 receptor) [nM] | Ki [1] [nM]
OCCn1cc(-c2ccc3c(c2)CCC2(CCN(C4CCC4)CC2)O3)cn1 [Example 198] | < 200 | < 200 | 101 to 103 | – | –
Cc1nn(C)c(C)c1-c1ccc2c(c1)COC1(CCN(C3CCC3)CC1)O2 [Example 199] | < 200 | < 200 | 140 to 143 | – | –
Cc1n[nH]c(C)c1-c1ccc2c(c1)COC1(CCN(C3CCC3)CC1)O2 [Example 200] | < 200 | < 200 | 110 to 112 | – | –
O=C(c1ccc(-c2ccc3c(c2)COC2(CCN(C4CCC4)CC2)O3)cc1)N1CCC[C@@H](O)C1 [Example 201] | < 200 | < 200 | 85 to 87 | – | –
COCCNC(=O)c1ccc(-c2ccc3c(c2)COC2(CCN(C4CCC4)CC2)O3)cc1F [Example 202] | < 200 | < 200 | 107 to 108.5 | – | –
O=C(Nc1ccc2c(c1)COC1(CCN(C3CCC3)CC1)O2)c1ccnnc1 [Example 203] | < 200 | < 200 | 206 to 207 | – | –
CNC(=O)c1ccc(-c2ccc3c(c2)COC2(CCN(C4CCC4)CC2)O3)cc1C [Example 205] | < 200 | < 200 | 174 to 176.2 | – | –
O=C(c1ccc(-c2ccc3c(c2)CCC2(CCN(C4CCC4)CC2)O3)cc1)N1CCC(O)CC1 [Example 206] | < 200 | < 200 | 90.4 to 92.6 | – | –
O=C1N(c2ccccc2)CCN1c1ccc2c(c1)COC1(CCN(C3CCC3)CC1)O2 [Example 207] | < 200 | < 200 | 195 to 197 | – | –
CCOC(=O)c1ccc(NC(=O)Nc2ccc3c(c2)COC2(CCN(C4CCC4)CC2)O3)cc1 [Example 208] | < 200 | 200 to 1000 | 188 to 189 | – | –
COCCNC(=O)c1ccc(-c2ccc3c(c2)CCC2(CCN(C4CCC4)CC2)O3)cn1 [Example 209] | < 200 | < 200 | 218 to 219 | – | –
O=C1N(c2ccncc2)CCN1c1ccc2c(c1)CCC1(CCN(C3CCC3)CC1)O2 [Example 210] | < 200 | < 200 | 208 to 210 | – | –
CO[C@H]1CCN(C(=O)c2ccc(-c3ccc4c(c3)CCC3(CCN(C5CCC5)CC3)O4)cc2)C1 [Example 211] | < 200 | < 200 | 70.2 to 71 | – | –
O=C(c1ccc(-c2ccc3c(c2)CCC2(CCN(C4CCC4)CC2)O3)cc1)N1CCC[C@H](O)C1 [Example 212] | < 200 | < 200 | 82 to 83.3 | – | –
O=C(c1ccc(Nc2ccc3c(c2)COC2(CCN(C4CCC4)CC2)O3)cc1)N1CC[C@@H](O)C1 [Example 215] | < 200 | < 200 | 114 to 116 | – | –
CS(=O)(=O)c1ccccc1C(=O)Nc1ccc2c(c1)COC1(CCN(C3CCC3)CC1)O2 [Example 216] | 200 to 1000 | < 200 | 143 to 145 | – | –
COCCNC(=O)c1ccc(-c2ccc3c(c2)CCC2(CCN(C4CCC4)CC2)O3)cc1F [Example 217] | < 200 | < 200 | 190 to 192 | – | –
CNC(=O)c1cnc(-c2ccc3c(c2)CCC2(CCN(C4CCC4)CC2)O3)s1 [Example 218] | < 200 | < 200 | 201 to 203 | – | –
CNC(=O)c1c(F)cc(-c2ccc3c(c2)COC2(CCN(C4CCC4)CC2)O3)cc1F [Example 220] | < 200 | < 200 | 212.6 to 214.2 | – | –
O=C(Nc1ccc2c(c1)COC1(CCN(C3CCC3)CC1)O2)c1ccncc1Cl [Example 221] | < 200 | < 200 | 192 to 193 | – | –
O=C(c1ccc(-c2ccc3c(c2)COC2(CCN(C4CCC4)CC2)O3)cc1F)N1CCC(O)CC1 [Example 222] | < 200 | < 200 | 105.2 to 106.9 | – | –
N#Cc1ccc(Oc2ccc3c(c2)CCC2(CCN(C4CCC4)CC2)O3)cc1 [Example 223] | < 200 | < 200 | 237 to 239 | – | –
N#Cc1ccc(C(=O)Nc2ccc3c(c2)CCC2(CCN(C4CCC4)CC2)O3)cc1 [Example 224] | < 200 | < 200 | 186 to 188 | – | –
CNC(=O)c1ccc(-c2ccc3c(c2)COC2(CCN(C4CCC4)CC2)O3)cc1Cl [Example 225] | < 200 | < 200 | 276 to 277 | – | –
CNC(=O)c1c(F)cc(-c2ccc3c(c2)CCC2(CCN(C4CCC4)CC2)O3)cc1F [Example 226] | < 200 | < 200 | 110 to 112 | – | –
